Results reported in publication PMC3103407 (2011).

T1: Gap1p (Saccharomyces cerevisiae, UniProt P19145, K16R/K9R)
T1 sequence (P19145 1-602 K9R/K16R): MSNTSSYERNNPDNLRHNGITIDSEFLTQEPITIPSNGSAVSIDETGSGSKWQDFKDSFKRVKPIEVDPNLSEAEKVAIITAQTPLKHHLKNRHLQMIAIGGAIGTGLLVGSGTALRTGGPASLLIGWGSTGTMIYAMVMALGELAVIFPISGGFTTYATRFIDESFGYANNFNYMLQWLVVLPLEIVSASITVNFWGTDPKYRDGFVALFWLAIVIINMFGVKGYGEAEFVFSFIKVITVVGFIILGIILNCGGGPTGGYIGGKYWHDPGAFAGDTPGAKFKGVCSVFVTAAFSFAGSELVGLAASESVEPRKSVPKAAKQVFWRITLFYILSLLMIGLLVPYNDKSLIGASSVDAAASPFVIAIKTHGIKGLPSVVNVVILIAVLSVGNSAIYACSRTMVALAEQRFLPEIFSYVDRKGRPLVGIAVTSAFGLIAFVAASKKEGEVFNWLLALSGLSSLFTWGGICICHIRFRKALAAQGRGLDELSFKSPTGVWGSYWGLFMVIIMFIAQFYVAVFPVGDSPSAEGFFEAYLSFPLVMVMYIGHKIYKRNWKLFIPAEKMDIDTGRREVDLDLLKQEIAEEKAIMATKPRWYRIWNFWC

T2: Gap1p (Saccharomyces cerevisiae, UniProt P19145, A297V/K16R/K9R)
T2 sequence (P19145 1-602 K9R/K16R/A297V): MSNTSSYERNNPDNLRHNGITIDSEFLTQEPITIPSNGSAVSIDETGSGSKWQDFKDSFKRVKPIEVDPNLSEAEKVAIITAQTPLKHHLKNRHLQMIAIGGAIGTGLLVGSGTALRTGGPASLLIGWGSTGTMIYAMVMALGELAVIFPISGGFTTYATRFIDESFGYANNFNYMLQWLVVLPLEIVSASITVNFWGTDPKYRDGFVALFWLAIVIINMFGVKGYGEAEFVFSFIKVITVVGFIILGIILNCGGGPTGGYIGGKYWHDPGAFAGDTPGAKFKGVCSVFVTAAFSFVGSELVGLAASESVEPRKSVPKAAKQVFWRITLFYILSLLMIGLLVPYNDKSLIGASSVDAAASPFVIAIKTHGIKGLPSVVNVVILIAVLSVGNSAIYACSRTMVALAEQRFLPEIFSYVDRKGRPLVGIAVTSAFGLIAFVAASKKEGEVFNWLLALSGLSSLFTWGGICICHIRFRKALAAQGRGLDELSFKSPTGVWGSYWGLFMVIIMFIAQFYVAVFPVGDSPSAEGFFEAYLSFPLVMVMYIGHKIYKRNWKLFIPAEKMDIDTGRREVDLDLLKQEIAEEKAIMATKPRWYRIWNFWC

B1: Gap1p (Saccharomyces cerevisiae S288C; K16R/K9R) (protein)
chain: MSNTSSYERNNPDNLRHNGITIDSEFLTQEPITIPSNGSAVSIDETGSGSKWQDFKDSFKRVKPIEVDPNLSEAEKVAIITAQTPLKHHLKNRHLQMIAIGGAIGTGLLVGSGTALRTGGPASLLIGWGSTGTMIYAMVMALGELAVIFPISGGFTTYATRFIDESFGYANNFNYMLQWLVVLPLEIVSASITVNFWGTDPKYRDGFVALFWLAIVIINMFGVKGYGEAEFVFSFIKVITVVGFIILGIILNCGGGPTGGYIGGKYWHDPGAFAGDTPGAKFKGVCSVFVTAAFSFAGSELVGLAASESVEPRKSVPKAAKQVFWRITLFYILSLLMIGLLVPYNDKSLIGASSVDAAASPFVIAIKTHGIKGLPSVVNVVILIAVLSVGNSAIYACSRTMVALAEQRFLPEIFSYVDRKGRPLVGIAVTSAFGLIAFVAASKKEGEVFNWLLALSGLSSLFTWGGICICHIRFRKALAAQGRGLDELSFKSPTGVWGSYWGLFMVIIMFIAQFYVAVFPVGDSPSAEGFFEAYLSFPLVMVMYIGHKIYKRNWKLFIPAEKMDIDTGRREVDLDLLKQEIAEEKAIMATKPRWYRIWNFWC
B2: Gap1p (Saccharomyces cerevisiae S288C; A297V/K16R/K9R) (protein)
chain: MSNTSSYERNNPDNLRHNGITIDSEFLTQEPITIPSNGSAVSIDETGSGSKWQDFKDSFKRVKPIEVDPNLSEAEKVAIITAQTPLKHHLKNRHLQMIAIGGAIGTGLLVGSGTALRTGGPASLLIGWGSTGTMIYAMVMALGELAVIFPISGGFTTYATRFIDESFGYANNFNYMLQWLVVLPLEIVSASITVNFWGTDPKYRDGFVALFWLAIVIINMFGVKGYGEAEFVFSFIKVITVVGFIILGIILNCGGGPTGGYIGGKYWHDPGAFAGDTPGAKFKGVCSVFVTAAFSFVGSELVGLAASESVEPRKSVPKAAKQVFWRITLFYILSLLMIGLLVPYNDKSLIGASSVDAAASPFVIAIKTHGIKGLPSVVNVVILIAVLSVGNSAIYACSRTMVALAEQRFLPEIFSYVDRKGRPLVGIAVTSAFGLIAFVAASKKEGEVFNWLLALSGLSSLFTWGGICICHIRFRKALAAQGRGLDELSFKSPTGVWGSYWGLFMVIIMFIAQFYVAVFPVGDSPSAEGFFEAYLSFPLVMVMYIGHKIYKRNWKLFIPAEKMDIDTGRREVDLDLLKQEIAEEKAIMATKPRWYRIWNFWC

Key:
Gap1p [1] = target: T1, Gap1p; test: competitive inhibition of […]-glycine uptake in yeast cells; format: cell-based
Gap1p [2] = target: T2, Gap1p; test: as above; format: cell-based
[3] = substrate: NCC(=O)O; test: cells, lysate or membranes; format: cell-based, Saccharomyces cerevisiae; settings: active site (amino acid binding pocket)

Molecule | Ki (Gap1p [1]) [µM] | Ki (Gap1p [2]) [µM] | Km [3] [µM]
NC(=O)NCCC[C@H](N)C(=O)O [citrulline] | ~36.6 | ~35.6 | 
B1 |  |  | 20.0 ± 5.3
B2 |  |  | 12.7 ± 1.12
